Data taken from US9499550B2 (BRISTOL-MYERS SQUIBB COMPANY, priority 2012, dated 2016).
Like-named read-outs stand apart in the source and are kept apart here.

Assays:
[1] = tested on: HCV genotype 1a (H77 strain) replicon in HUH-7 cells; assay: HCV replicon luciferase reporter assay, genotype 1a; type: cell-based; settings: Hepatitis C virus, Huh-7, 72 h, HCV genotype 1a replicon luciferase assay, 3 days incubation, range class, read-out: LE_1a (EC50, range)
In short: (§1)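 Replicon inhibition for both genotypes was measured as Renilla luciferase signal (EnduRen, 7.5 μM final, 2 h) after 3-day, 37° C exposure of replicon-bearing HUH-7 cells in 4% FCS DMEM, 0.5% DMSO. The 1b construct carries S1179I; the 1a H77 construct carries P1496L and S2204I. Twenty-point, 3-fold dilutions were fitted four-parametrically for EC50, and CC50 was taken from multiplexed Cell Titer-Blue.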

[2] = tested on: HCV genotype 1b (Con1) replicon in HUH-7 cells; assay: HCV replicon luciferase reporter assay, genotype 1b; type: cell-based; settings: Hepatitis C virus, Huh-7, 72 h, HCV genotype 1b replicon luciferase assay, 3 days incubation, range class, read-out: LE_1b (EC50, range)
In short: as §1

SMILES | EC50 [1] [nM] | EC50 [2] [nM] | EC50 ([1]; GETYPE1A) [nM] | EC50 ([2]; GETYPE1B) [nM]
COc1ccc2c(O[C@@H]3C[C@H]4C(=O)N[C@]5(C(=O)NS(=O)(=O)C6(CF)CC6)C[C@H]5/C=C\CC[C@H](C)C[C@@H](C)[C@H](NC(=O)OC(C)(C)C(F)(F)F)C(=O)N4C3)nc(N(C)C)nc2c1 [Compound 3009, 1,1,1-trifluoro-2-methylpropan-2-yl((2R,6S,7R,9S,13aS,14aR,16aS,Z)-2-((2-(dimethylamino)-7-methoxyquinazolin-4-yl)oxy)-14a-(((1-(fluoromethyl)cyclopropyl)sulfonyl)carbamoyl)-7,9-dimethyl-5,16-dioxo-1,2,3,5,6,7,8,9,10,11,13a,14,14a,15,16,16a-hexadecahydrocyclopropa[e]pyrrolo[1,2-a][1,4]diazacyclopentadecin-6-yl)carbamate] | 4.82 to 103 | 4.82 to 103 | – | –
COc1ccc2c(O[C@@H]3C[C@H]4C(=O)N[C@]5(C(=O)NS(=O)(=O)C6(CF)CC6)C[C@H]5/C=C\CC[C@@H](C)C[C@@H](C)[C@H](NC(=O)OC(C)(C)C(F)(F)F)C(=O)N4C3)nc(N(C)C)nc2c1 [Compound 3010, 1,1,1-trifluoro-2-methylpropan-2-yl((2R,6S,7R,9R,13aS,14aR,16aS,Z)-2-((2-(dimethylamino)-7-methoxyquinazolin-4-yl)oxy)-14a-(((1-(fluoromethyl)cyclopropyl)sulfonyl)carbamoyl)-7,9-dimethyl-5,16-dioxo-1,2,3,5,6,7,8,9,10,11,13a,14,14a,15,16,16a-hexadecahydrocyclopropa[e]pyrrolo[1,2-a][1,4]diazacyclopentadecin-6-yl)carbamate] | < 5.46 | < 5.46 | – | –
COc1ccc2c(O[C@@H]3C[C@H]4C(=O)N[C@]5(C(=O)NS(=O)(=O)C6(C)CC6)C[C@H]5/C=C\CC[C@H](C)C[C@@H](C)[C@H](NC(=O)OC(C)(C)C(F)(F)F)C(=O)N4C3)nc(-c3ccc(OC(C)C)cc3)nc2c1 [Compound 3011, 1,1,1-trifluoro-2-methylpropan-2-yl((2R,6S,7R,9S,13aS,14aR,16aS,Z)-2-((2-(4-isopropoxyphenyl)-7-methoxyquinazolin-4-yl)oxy)-7,9-dimethyl-14a-(((1-methylcyclopropyl)sulfonyl)carbamoyl)-5,16-dioxo-1,2,3,5,6,7,8,9,10,11,13a,14,14a,15,16,16a-hexadecahydrocyclopropa[e]pyrrolo[1,2-a][1,4]diazacyclopentadecin-6-yl)carbamate] | 4.82 to 103 | < 5.46 | – | –
COc1ccc2c(O[C@@H]3C[C@H]4C(=O)N[C@]5(C(=O)NS(=O)(=O)C6(C)CC6)C[C@H]5/C=C\CC[C@@H](C)C[C@@H](C)[C@H](NC(=O)OC(C)(C)C(F)(F)F)C(=O)N4C3)nc(-c3ccc(OC(C)C)cc3)nc2c1 [Compound 3012, 1,1,1-trifluoro-2-methylpropan-2-yl((2R,6S,7R,9R,13aS,14aR,16aS,Z)-2-((2-(4-isopropoxyphenyl)-7-methoxyquinazolin-4-yl)oxy)-7,9-dimethyl-14a-(((1-methylcyclopropyl)sulfonyl)carbamoyl)-5,16-dioxo-1,2,3,5,6,7,8,9,10,11,13a,14,14a,15,16,16a-hexadecahydrocyclopropa[e]pyrrolo[1,2-a][1,4]diazacyclopentadecin-6-yl)carbamate] | < 5.46 | < 5.46 | – | –
COc1ccc2c(O[C@@H]3C[C@H]4C(=O)N[C@]5(C(=O)NS(=O)(=O)C6(CF)CC6)C[C@H]5/C=C\CC[C@H](C)C[C@@H](C)[C@H](NC(=O)OC(C)(C)C)C(=O)N4C3)nc(N3CCCC3)nc2c1 [Compound 3013, tert-butyl ((2R,6S,7R,9S,13aS,14aR,16aS,Z)-14a-(((1-(fluoromethyl)cyclopropyl)sulfonyl)carbamoyl)-2-((7-methoxy-2-(pyrrolidin-1-yl)quinazolin-4-yl)oxy)-7,9-dimethyl-5,16-dioxo-1,2,3,5,6,7,8,9,10,11,13a,14,14a,15,16,16a-hexadecahydrocyclopropa[e]pyrrolo[1,2-a][1,4]diazacyclopentadecin-6-yl)carbamate] | 4.82 to 103 | 4.82 to 103 | – | –
COc1ccc2c(O[C@@H]3C[C@H]4C(=O)N[C@]5(C(=O)NS(=O)(=O)C6(CF)CC6)C[C@H]5/C=C\CC[C@@H](C)C[C@@H](C)[C@H](NC(=O)OC(C)(C)C)C(=O)N4C3)nc(N3CCCC3)nc2c1 [Compound 3014, tert-butyl ((2R,6S,7R,9R,13aS,14aR,16aS,Z)-14a-(((1-(fluoromethyl)cyclopropyl)sulfonyl)carbamoyl)-2-((7-methoxy-2-(pyrrolidin-1-yl)quinazolin-4-yl)oxy)-7,9-dimethyl-5,16-dioxo-1,2,3,5,6,7,8,9,10,11,13a,14,14a,15,16,16a-hexadecahydrocyclopropa[e]pyrrolo[1,2-a][1,4]diazacyclopentadecin-6-yl)carbamate] | 4.82 to 103 | < 5.46 | – | –
COc1ccc2c(O[C@@H]3C[C@H]4C(=O)N[C@]5(C(=O)NS(=O)(=O)C6(CF)CC6)C[C@H]5/C=C\CC[C@@H](C)C[C@@H](C)[C@H](NC(=O)OC(C)(C)C)C(=O)N4C3)nc(OC)nc2c1 [Compound 3015, tert-butyl ((2R,6S,7R,9R,13aS,14aR,16aS,Z)-2-((2,7-dimethoxyquinazolin-4-yl)oxy)-14a-(((1-(fluoromethyl)cyclopropyl)sulfonyl)carbamoyl)-7,9-dimethyl-5,16-dioxo-1,2,3,5,6,7,8,9,10,11,13a,14,14a,15,16,16a-hexadecahydrocyclopropa[e]pyrrolo[1,2-a][1,4]diazacyclopentadecin-6-yl)carbamate] | < 5.46 | < 5.46 | – | –
COc1ccc2c(O[C@@H]3C[C@H]4C(=O)N[C@]5(C(=O)NS(=O)(=O)C6CC6)C[C@H]5/C=C\CC[C@H](C)C[C@@H](C)[C@H](NC(=O)OC(C)(C)C)C(=O)N4C3)nc(-c3ccc(OC(C)C)cc3)nc2c1 [Compound 3016, tert-butyl ((2R,6S,7R,9S,13aS,14aR,16aS,Z)-14a-((cyclopropylsulfonyl)carbamoyl)-2-((2-(4-isopropoxyphenyl)-7-methoxyquinazolin-4-yl)oxy)-7,9-dimethyl-5,16-dioxo-1,2,3,5,6,7,8,9,10,11,13a,14,14a,15,16,16a-hexadecahydrocyclopropa[e]pyrrolo[1,2-a][1,4]diazacyclopentadecin-6-yl)carbamate] | < 5.46 | < 5.46 | – | –
COc1ccc2c(O[C@@H]3C[C@H]4C(=O)N[C@]5(C(=O)NS(=O)(=O)C6CC6)C[C@H]5/C=C\CC[C@@H](C)C[C@@H](C)[C@H](NC(=O)OC(C)(C)C)C(=O)N4C3)nc(-c3ccc(OC(C)C)cc3)nc2c1 [Compound 3017, tert-butyl ((2R,6S,7R,9R,13aS,14aR,16aS,Z)-14a-((cyclopropylsulfonyl)carbamoyl)-2-((2-(4-isopropoxyphenyl)-7-methoxyquinazolin-4-yl)oxy)-7,9-dimethyl-5,16-dioxo-1,2,3,5,6,7,8,9,10,11,13a,14,14a,15,16,16a-hexadecahydrocyclopropa[e]pyrrolo[1,2-a][1,4]diazacyclopentadecin-6-yl)carbamate] | < 5.46 | < 5.46 | – | –
COc1ccc2c(O[C@@H]3C[C@H]4C(=O)N[C@]5(C(=O)NS(=O)(=O)C6(CF)CC6)C[C@H]5/C=C\CC[C@H](C)C[C@@H](C)[C@H](NC(=O)OC(C)(C)C(F)(F)F)C(=O)N4C3)nc(N3CCCC3)nc2c1 [Compound 3018, 1,1,1-trifluoro-2-methylpropan-2-yl((2R,6S,7R,9S,13aS,14aR,16aS,Z)-14a-(((1-(fluoromethyl)cyclopropyl)sulfonyl)carbamoyl)-2-((7-methoxy-2-(pyrrolidin-1-yl)quinazolin-4-yl)oxy)-7,9-dimethyl-5,16-dioxo-1,2,3,5,6,7,8,9,10,11,13a,14,14a,15,16,16a-hexadecahydrocyclopropa[e]pyrrolo[1,2-a][1,4]diazacyclopentadecin-6-yl)carbamate] | 4.82 to 103 | 4.82 to 103 | – | –
COc1ccc2c(O[C@@H]3C[C@H]4C(=O)N[C@]5(C(=O)NS(=O)(=O)C6(CF)CC6)C[C@H]5/C=C\CC[C@@H](C)C[C@@H](C)[C@H](NC(=O)OC(C)(C)C(F)(F)F)C(=O)N4C3)nc(N3CCCC3)nc2c1 [Compound 3019, 1,1,1-trifluoro-2-methylpropan-2-yl((2R,6S,7R,9R,13aS,14aR,16aS,Z)-14a-(((1-(fluoromethyl)cyclopropyl)sulfonyl)carbamoyl)-2-((7-methoxy-2-(pyrrolidin-1-yl)quinazolin-4-yl)oxy)-7,9-dimethyl-5,16-dioxo-1,2,3,5,6,7,8,9,10,11,13a,14,14a,15,16,16a-hexadecahydrocyclopropa[e]pyrrolo[1,2-a][1,4]diazacyclopentadecin-6-yl)carbamate] | 4.82 to 103 | < 5.46 | – | –
COc1ccc2c(O[C@@H]3C[C@H]4C(=O)N[C@]5(C(=O)NS(=O)(=O)C6(CF)CC6)C[C@H]5/C=C\CC[C@@H](C)C[C@@H](C)[C@H](NC(=O)OC(C)(C)C(F)(F)F)C(=O)N4C3)nc(OC)nc2c1 [Compound 3020] | – | – | 4.82 to 103 | < 5.46
COc1ccc2c(O[C@@H]3C[C@H]4C(=O)N[C@]5(C(=O)NS(=O)(=O)C6CC6)C[C@H]5/C=C\CC[C@H](C)C[C@@H](C)[C@H](NC(=O)OC(C)(C)C(F)(F)F)C(=O)N4C3)nc(-c3ccc(OC(C)C)cc3)nc2c1 [Compound 3021, 1,1,1-trifluoro-2-methylpropan-2-yl((2R,6S,7R,9S,13aS,14aR,16aS,Z)-14a-((cyclopropylsulfonyl)carbamoyl)-2-((2-(4-isopropoxyphenyl)-7-methoxyquinazolin-4-yl)oxy)-7,9-dimethyl-5,16-dioxo-1,2,3,5,6,7,8,9,10,11,13a,14,14a,15,16,16a-hexadecahydrocyclopropa[e]pyrrolo[1,2-a][1,4]diazacyclopentadecin-6-yl)carbamate] | < 5.46 | < 5.46 | – | –
